The test system of one data set is SH-SY5Y. Briefly: cells. The following applies: Homo sapiens, 24 h, read-out: LD50.
The nature of data set [1]: Drug uptake in overnight fasted pancreas of cerulein-induced acute pancreatitis C57BL/6 mouse model at 0.1 mg/kg, ip dosed 14 hrs after cerulein injection and measured 10 hrs after compound administration. It counts as ADME, organism-based. The note with it: in vivo.
In data set [2] the test system is Mus musculus. Briefly: Anti-inflammatory activity against overnight fasted cerulein-induced acute pancreatitis C57BL/6 mouse model assessed as reversal of pancreatic damage at 0.3 mg/kg, ip dosed 14 hrs after cerulein injection and measured 10 hrs after compound administration. Type of data set: functional, organism-based.
Data set [3] deals with Mus musculus. Kind of data set: Anti-inflammatory activity against overnight fasted cerulein-induced acute pancreatitis C57BL/6 mouse model assessed as reversal of reversal of neutrophil infiltration at 0.3 mg/kg, ip dosed 14 hrs after cerulein injection and measured 10 hrs after compound administration. It counts as functional, organism-based.
Data set [4] concerns Mus musculus. Kind of data set: Anti-inflammatory activity against overnight fasted cerulein-induced acute pancreatitis C57BL/6 mouse model assessed as reduction in inflammatory cells at 0.1 to 0.3 mg/kg, ip dosed 14 hrs after cerulein injection and measured 10 hrs after compound administration. It counts as functional, organism-based. The following applies: dose 0.1-0.3 mg/kg.

Data set [5] can be described thus: Toxicity in overnight fasted C57BL/6 mouse model of cerulein-induced acute pancreatitis assessed as reversal of edema at 0.3 mg/kg, ip dosed 14 hrs after cerulein injection and measured 10 hrs after compound administration. It counts as organism-based. The following applies: in vivo.
Data set [6] in a line: Toxicity in overnight fasted C57BL/6 mouse model of cerulein-induced acute pancreatitis assessed as increase in body weight at 0.1 mg/kg, ip dosed 14 hrs after cerulein injection and measured 10 hrs after compound administration. Type of data set: organism-based. The following applies: in vivo.
The test system of data set [7] is Mus musculus. Kind of data set: Anti-inflammatory activity against overnight fasted cerulein-induced acute pancreatitis C57BL/6 mouse model assessed as reduction in parenchymal atrophy at 0.1 to 0.3 mg/kg, ip dosed 14 hrs after cerulein injection and measured 10 hrs after compound administration. Type of data set: functional, organism-based. The following applies: dose 0.1-0.3 mg/kg.

Data set [8] deals with Mus musculus. Briefly: Anti-inflammatory activity against overnight fasted cerulein-induced acute pancreatitis C57BL/6 mouse model assessed as reduction in severity of pancreatitis at 0.1 to 0.3 mg/kg, ip dosed 14 hrs after cerulein injection and measured 10 hrs after compound administration. It counts as functional, organism-based. The following applies: dose 0.1-0.3 mg/kg.

Data set [9] can be described thus: Toxicity in overnight fasted C57BL/6 mouse model of cerulein-induced acute pancreatitis assessed as increase in body weight at 0.3 mg/kg, ip dosed 14 hrs after cerulein injection and measured 10 hrs after compound administration. Type of data set: organism-based. The note with it: in vivo.

Activity calls are given as the source filed them. No cut-off for these calls is given here. Where only a bound is given, the exact number is not on record here.

Description for SH-SY5Y: Cytotoxicity against human SH-SY5Y cells assessed as lethal dose measured after 24 hrs by propidium iodide staining based fluorescent assay

As for `CC12CC3CC(NC(=O)N[C@H]4CC[C@H](Oc5ccc(C(=O)O)cc5)CC4)(CC(C1)c1ccccc13)C2`, the CC50 in the data set with SH-SY5Y was more than 100 µM.
On to `O=C(NC12CC3CC(Cl)(CC(C1)c1ccccc13)C2)N[C@H]1CC[C@H](Oc2ccc(C(=O)O)cc2)CC1`, for which the CC50 with SH-SY5Y was more than 100 µM. In [1], the Drug uptake result was “Not Active”. Further, the result in the data set with Mus musculus [2], in the data set on Mus musculus [3], in the data set with Mus musculus [4], with Mus musculus [7] and in the data set on Mus musculus [8] was Active. In addition, the Activity entry is reported as “Non-Toxic” in data set [5], “Toxic” in data set [6] and “Toxic” in [9].
For `O=C(NC12CC3CC(F)(CC(C1)c1ccccc13)C2)N[C@H]1CC[C@H](Oc2ccc(C(=O)O)cc2)CC1`, the CC50 with SH-SY5Y is more than 100 µM.

The values above are taken from ChEMBL document CHEMBL5036312, “From the Design to the In Vivo Evaluation of Benzohomoadamantane-Derived Soluble Epoxide Hydrolase Inhibitors for the Treatment of Acute Pancreatitis” (J Med Chem, 2021).
